Results on 1 compound are retold here after article PMC12431657, “Discovery and mechanistic insights of dibenzoylmethane as a broad spectrum inhibitor of coronavirus” (PLOS Pathogens, 2025).

Where “and” joins values, the source holds several entries; their conditions need not be identical. Equal values may be shown once.

For data set [1], the system named is HCoV-OC43. In words: Viral entry and internalization assay. Format: cell-based. As to conditions: confocal microscopy. Here is the method:
(§1) To obtain further insight into the stage at which DBM inhibits the replication of HCoV-OC43 and other HCoVs, RD cells were incubated with compounds, including DBM, remdesivir (RDV), and chloroquine (CQ), at different stages of viral infection. Viral RNA from the supernatant was extracted and quantitatively analysed via qRT-PCR. […] For the viral binding assay, cells were cultured in the presence or absence of DBM at different concentrations for 1 hour before being infected with HCoV-OC43 at an MOI of 50, and then were placed on ice for 2 hours for the viral particles to bind to the membrane of the host cells, followed by washing with PBS. […] In addition to binding to receptors from host cells, the spike proteins of HCoV-OC43 could also trigger membrane fusion when HCoV-OC43 spike plasmid-transfected 293T cells were seeded together with RD cells as target cells, and the addition of DBM had no effect on this process (S5C Fig). […] To determine whether DBM influences viral release, we quantified viral RNA both intracellularly and in the supernatant.
The cells were seeded at a low density onto 35 mm glass bottom dishes with 10 mm microwells (Cellvis) and incubated overnight at 37 °C. […] The number of intracellular virus particles was quantified with ImageJ software.

For data set [2], the system named is IFN signalling. Put plainly: IFNB1 and IFN-stimulated gene expression (qPCR). The format is cell-based.
The subject of data set [3] is HCoV-OC43. In words: Antiviral activity of DBM in the presence of IFN signalling suppressants. Format: cell-based. Here is the method:
Fig 6 DBM-mediated downregulation of caspase-6 restores IFN signalling suppressed by the coronavirus nucleocapsid protein. A) Intracellular levels of HCoV-OC43 nucleocapsid proteins and caspase-6 in HCoV-OC43-infected cells treated with serially diluted DBM or Z-VEID-FMK. Cells were pretreated with gradient-diluted DBM or Z-VEID-FMK prior to viral infection. B) Inhibitory effects of DBM against HCoV-OC43 and EV71. Cells were pre-treated with gradient-diluted DBM for 1 hour before inoculated with HCoV-OC43 or EV71, respectively. C) Attenuation of antiviral effects of DBM in IFN signalling-deficient cell lines. HEK293T-AT and Vero E6 cells were pre-treated with gradient-diluted DBM for 1 hour before infection. […] Cells were pretreated with gradient-diluted DBM or Z-VEID-FMK for 24 h, and then transfected with coronaviruses nucleocapsid proteins expression plasmid, and after 16 h of transfection, cells were treated with DMSO or STS. E) DBM alleviated the suppression of IFNB1 expression induced by coronaviruses nucleocapsid proteins and caspase-6. Cells were pretreated with DMSO or DBM for 24 h, subsequently, transfected with Poly(I:C) and plasmids. F) Impact of IFN signalling suppressants on the antiviral activity of DBM. Cells were pretreated with DMSO, Ruxolitinib or IFN alpha-IFNAR-IN-1 hydrochloride, respectively, for 1 hour. Subsequently, a gradient dilution of DBM was added to the medium, and then HCoV-OC43 was inoculated into the cells. Data were statistically analysed with Student’s T test. *: p ≤ 0.05, **: p ≤ 0.01, ***: p ≤ 0.001, ****: p ≤ 0.0001; ns, not significant. The experiments were repeated three times independently with similar results.
On the basis of this finding, we hypothesized that DBM downregulates caspase-6, reduces the cleavage of nucleocapsid proteins, and thereby enhances IFN signalling to inhibit viral replication. To test this hypothesis, we incubated cells transfected with plasmids expressing coronavirus nucleocapsid proteins in the presence or absence of DBM or Z-VEID-FMK. […] As the reduction in cleaved nucleocapsid protein fragments could theoretically […] IFN signalling, we sought to investigate the relationship between DBM treatment and IFN signalling. To this end, we further transfected cells with plasmids expressing both caspase-6 and coronavirus nucleocapsid proteins, and subsequently incubated the cells with or without DBM. […] Whereas the other two apoptosis-executing caspases, caspase-3 and caspase-7, could not inhibit IFN signalling in a similar system (S8C Fig). Furthermore, we examined the expression of IFNB1 and its downstream IFN-stimulated genes following DBM treatment in the context of HCoV-OC43 infection (S8D and S8E Fig).

Data set [4] has as its system HCoV-OC43. In words: Viral binding assay. The format is cell-based. To be noted: MOI of 50, on ice 2 hours. The protocol:
as §1
The cells were seeded onto 24-well plates and incubated overnight at 37 °C. […] The cells were washed three times with PBS before total RNA was extracted and analysed by qRT-PCR as previously described.

A short description of data set [5]: Metabolic stability in mouse liver microsomes. Format: in vitro ADME. As to conditions: average, read-out: T1/2 of metabolism. Here is the method:
Thus, a pharmacokinetic study was performed for DBM in Sprague-Dawley (SD) rats. Following oral administration of menstruum or DBM at 200 mpk, blood samples from the rats were collected at 2 min, 5 min, 15 min, 30 min, 1 h, 2 h, 4 h, 8 h, and 24 h posttreatment. The concentration of DBM in the plasma was determined by liquid chromatography with tandem mass spectrometry (LC-MS/MS). The minimum effective concentration (MEC) line in the graph represents the EC95 value of DBM (Fig 3C). […] To analyse the metabolic stability of DBM, we incubated human and mouse liver microsomes with DBM. The T1/2 of metabolism was an average of 13.92 min in human liver microsomes and 4.84 min in mouse liver microsomes.
For orientation: Liver microsomes are vesicles of endoplasmic reticulum, rich in cytochrome P450 enzymes.

As to `O=C(CC(=O)c1ccccc1)c1ccccc1` [DBM, dibenzoylmethane], the viral internalisation entry in data set [1] was “did not interfere”. Moreover, in data set [2], the IFITM3 expression was 1.19 and 1.66 and 1.36. Further, the IFNB1 expression in data set [2] was 6.09 and 4.34 and 4.64. Further, in data set [2], the OAS1 expression was 1.74 and 2.26 and 1.65. Further, the “suppression of IFN signalling by caspase-6 and nucleocapsid proteins (IFNB1, ISGs)” value in data set [2] was “reversed the suppression of IFN signalling”. Besides, the “IFN signalling in HCoV-OC43-infected cells” value in data set [2] (IFNB1 and ISG mRNA) is recorded as “enhanced IFN signalling”. Besides, the “Viral RNA copies (Fig6F)” value in data set [3] (DBM 0.06, with DMSO) is 8575323 and 7173199 and 8361273; in data set [3] (DBM 0.06, with IFNi) it was 714000 and 1370000 and 1200000; in data set [3] (DBM 0.19, with DMSO) it was 4042565 and 5441926 and 4875856; in data set [3] (DBM 0.19, with IFNi) it was 1160000 and 961000 and 754000; in data set [3] (DBM 0.19, with RUX) it was 1920000 and 2400000 and 1530000; in data set [3] (DBM 0.56, with DMSO) it was 380096 and 713734 and 725626. The “Viral RNA copies (Fig6F)” value is 1150000 and 922000 and 1030000 in data set [3] (DBM 0.56, with IFNi); 1380000 and 2020000 and 2160000 in data set [3] (DBM 0.56, with RUX); 91512 and 73409 and 91292 in data set [3] (DBM 1.67, with DMSO); 807000 and 1340000 in data set [3] (DBM 1.67, with IFNi); 2040000 and 3700000 in data set [3] (DBM 1.67, with RUX); 87392 and 81273 and 92455 in data set [3] (DBM 5.00, with DMSO). For the same compound, the “Viral RNA copies (Fig6F)” value in data set [3] (DBM 5.00, with IFNi) was 1300000 and 976000 and 920000; in data set [3] (DBM 5.00, with RUX), 1880000 and 1760000 and 2040000. For the same compound, the “antiviral activity of DBM, cells pretreated with IFN alpha-IFNAR-IN-1 hydrochloride” value in data set [3] (HCoV-OC43) was “markedly reduced”. Besides, the “antiviral activity of DBM, cells pretreated with ruxolitinib” value in data set [3] (HCoV-OC43) is “markedly reduced”. In data set [4], the viral binding result is recorded as “did not interfere”. For the same compound, the half-life in data set [5] was found to be 4.84 min.
